Reference: PubChem BioAssay (NCI)
“And” between values parts separate entries of the source, which are not always exact repeats. Equal entries are not always repeated.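 Briefly, cells in 96-well plates were exposed to five compound concentrations for 48 h, and endpoints were estimated by linear interpolation. GI50 = concentration required for 50% inhibition of growth. At the TGI there is no net growth.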

Experiments:
Assay in all cases: NCI-60 cell line screen, 48 h
[1] = test system: DMS 114 small cell lung
[2] = test system: KM20L2 colon
[3] = test system: M19-MEL melanoma
[4] = test system: SNB-78 CNS
[5] = test system: XF 498 CNS
[6] = test system: MCF7 breast
[7] = test system: RXF-631 renal
[8] = test system: MDA-N
[9] = test system: HOP-18 NSCLC

N=C1CSC2=NC3=C(CCC/C3=C\c3ccccc3)C(c3ccccc3)N12 (configuration not stated)
TGI [1]: 8.57 µM
TGI [2]: 16.8 µM
TGI [3]: 18.3 µM
TGI [4]: 23.6 µM
TGI [5]: 35.1 µM

CSc1cc(N=Nc2nc3ccccc3s2)c2ccccc2c1O
GI50 [6]: 9.51 µM
TGI [6]: 28.8 µM

COC(=O)CCCCN=Cc1c(O)c(O)c(C(C)C)c2cc(C)c(-c3c(C)cc4c(C(C)C)c(O)c(O)c(C=NCCCCC(=O)OC)c4c3O)c(O)c12
GI50 [6]: 0.917 µM
TGI [6]: 6.26 µM

CN(C(=O)C12C3C4C1C1C2C3C41C(=O)C(C)(C)C)C(C)(C)C (configuration not stated)
TGI [1]: > 100 µM
TGI [2]: > 100 µM
TGI [3]: > 100 µM
TGI [7]: > 100 µM
TGI [4]: > 100 µM
TGI [5]: > 100 µM

O=NN(Cc1ccc(Cl)cc1)C(C(=O)O)c1ccccc1 (configuration not stated)
TGI [6]: > 100 µM
TGI [8]: > 100 µM

CC(C)CC(=O)[O-].CC(C)CC(=O)[O-].N.N.N.N.[Co+3].[O-][Cl+3]([O-])([O-])[O-]
GI50 [2]: > 100 µM
TGI [2]: > 100 µM
GI50 [4]: > 100 µM
TGI [4]: > 100 µM

Cc1cc(I)cc(CNCCCN2CCSCC2)c1O
GI50 [6]: 15.1 µM
TGI [6]: 31.6 µM

CCc1c(Oc2ccc(C(C)=O)cc2)c2ccccc2[nH]c1=O
GI50 [6]: 10.5 µM
TGI [6]: > 71.7 µM

CCOc1ccc2c(c1)[n+]([O-])c(S(=O)(=O)c1ccc(C)cc1)c(N)[n+]2[O-]
TGI [1]: > 100 µM
TGI [9]: > 100 µM
TGI [2]: > 100 µM
TGI [3]: > 100 µM
TGI [4]: > 100 µM

COc1cccc(/C=N/NC(=O)c2ccccc2Nc2ccnc(C(F)(F)F)c2)c1O
GI50 [6]: 0.313 µM
TGI [6]: 29.5 µM

CCCCN(CCCC)C(=O)C(=O)C(C#N)c1ccc(C)cc1 (configuration not stated)
TGI [1]: > 100 µM
TGI [9]: > 100 µM
TGI [2]: > 100 µM
TGI [3]: > 100 µM
TGI [4]: > 100 µM
TGI [5]: > 100 µM

CCCCC/C(C=C(C#N)C#N)=C/c1ccccc1
GI50 [6]: 3.46 µM
TGI [6]: 17.4 µM

CCOc1cccc(/C=N/NC(=O)c2ccccc2Nc2ccnc(C(F)(F)F)c2)c1O
GI50 [6]: 0.34 µM
TGI [6]: 25.4 µM

O=C(c1ccco1)c1nc2ccc(C(F)(F)F)cc2[n+]([O-])c1C(F)(F)F
GI50 [6]: 41.6 µM
TGI [6]: > 100 µM

COC(=O)c1cc2c3ccccc3[nH]c2c2ncccc12
GI50 [6]: 14.4 µM
TGI [6]: > 100 µM

NCC(=O)NS(=O)(=O)OC[C@H]1O[C@@H](n2cnc3c(N)ncnc32)[C@H](O)[C@@H]1O
GI50 [6]: 2.85 µM
TGI [6]: 18.7 µM

N#C/C(=C/c1ccsc1)C(=O)c1ccccc1
TGI [1]: > 100 µM
TGI [9]: > 100 µM
TGI [2]: > 100 µM
TGI [3]: > 100 µM
TGI [4]: > 100 µM
TGI [5]: > 100 µM

COc1ccc2[nH]c3c(C)c4c(c(C)c3c2c1)CN(C)CC4
TGI [1]: 33.8 µM
TGI [9]: 31.3 µM
TGI [2]: 34.8 µM
TGI [3]: 31.6 µM
TGI [7]: 58.4 µM
TGI [4]: 80.6 µM

COc1cc(OC)cc(-c2ccc(-c3ccc(C(=N)N)o3)o2)c1
GI50 [6]: 1.8 µM
TGI [6]: 4.31 µM

CCOC(=O)/C=C(/C(=O)OCC)n1cc(Cl)c(=O)n(CC(=O)OCC)c1=O
TGI [6]: 46.3 µM
GI50 [8]: 16.4 µM
TGI [8]: 11.9 µM and 31.4 µM

C=C(CN1CCc2ccccc2C1)c1ccc(C(=O)Nc2cnccn2)cc1
GI50 [6]: > 100 µM
TGI [6]: > 100 µM

O=c1oc2ccc(F)cc2c(=O)n1-c1ccc(F)cc1F
GI50 [6]: 2.87 µM
TGI [6]: > 100 µM

CC1=C(CCCNS(C)(=O)=O)C2=C(C)C3(CC3)[C@@](C)(O)C(=O)C2=C1
GI50 [6]: 2.01 µM
TGI [6]: > 100 µM

O=C1/C(=C/c2ccc(Cl)cc2Cl)N=C(c2ccccc2)N1Cc1ccco1
GI50 [6]: 13.9 µM
TGI [6]: 33.3 µM

COc1cnc2cc(C(=O)O)c3c([N+](=O)[O-])cccc3c2c1
TGI [6]: > 100 µM
TGI [8]: > 100 µM

Cc1ccc(S(=O)(=O)N(CCOc2ccc(/C(N)=N/Cl)cc2)CCOc2ccc(/C(N)=N\Cl)cc2)cc1
GI50 [6]: 8.08 µM
TGI [6]: > 100 µM

O=C(CN1CCOCC1)Nc1ccc(Cn2nnc3c2C(=O)c2nnn(Cc4ccc(NC(=O)CN5CCOCC5)cc4)c2C3=O)cc1
GI50 [6]: 0.18 µM
TGI [6]: 0.484 µM

CCNCCNc1cc(-c2ccc(C(=O)OC)cc2)c(C#N)c2nc3ccccc3n12
GI50 [6]: 1.52 µM
TGI [6]: > 100 µM

COc1cc2c3c(n(C)c(=O)c2cc1OC)-c1cc2c(cc1/C3=C\CCCN1C(=O)c3ccccc3C1=O)OCO2
GI50 [6]: 6.94 µM
TGI [6]: > 40 µM

CN(C)CCNc1cc(-c2ccccc2)nc2ccccc12
GI50 [6]: 3.68 µM
TGI [6]: 19.7 µM

COc1ccc2c(c1)c(-c1nc(-c3cn(C)c4ncccc34)cs1)cn2CCCN1CCCCC1
GI50 [6]: 1.7 µM
TGI [6]: 3.32 µM

O=C1/C(=C/c2ccc(Br)cc2)C=C(c2ccccc2)N1CCc1ccccc1
GI50 [6]: 3.42 µM
TGI [6]: 32.7 µM

O=C(O)Cn1ccc(=O)c2ccc([N+](=O)[O-])cc21
TGI [6]: > 100 µM
TGI [8]: > 100 µM

CC1(Cl)C(=O)NC(=O)N(C2CC(N=[N+]=[N-])C(CO)O2)C1N=[N+]=[N-] (configuration not stated)
TGI [1]: > 100 µM
TGI [2]: > 100 µM
TGI [3]: > 100 µM
TGI [7]: > 100 µM
TGI [5]: > 100 µM

COc1cc(C2c3cc4c(cc3C(NCC(O)CO)C3COC(=O)[C@H]23)OCO4)cc(OC)c1OC (some centres not stated)
TGI [1]: 0.245 µM
TGI [9]: > 100 µM
TGI [3]: > 100 µM
TGI [4]: > 100 µM
TGI [5]: > 100 µM

COc1ccc2cc1Oc1ccc(cc1)CC1c3cc(c(OC)cc3CCN1C)Oc1c3c(cc4c1C(C2)N(C)CC4)OCO3 (configuration not stated)
TGI [1]: 17.5 µM
TGI [2]: 6.18 µM
TGI [3]: 12.9 µM
TGI [7]: 36 µM
TGI [4]: 30.7 µM
TGI [5]: 21.6 µM

CC1CCC2(C(=O)O)CCC3(C)C(=CCC4C5(C)CC(O)C(O)C(C)(CO)C5C(O)CC43C)C2C1C (configuration not stated)
TGI [6]: > 100 µM
TGI [8]: > 57.6 µM

COC(=O)C1=C(C(=O)OC)C2C=CC1C1C(Cl)=C(Cl)C21 (configuration not stated)
TGI [1]: > 100 µM
TGI [9]: > 100 µM
TGI [2]: > 100 µM
TGI [3]: > 100 µM
TGI [7]: > 100 µM

CCCCCCCCCC[C@@H](O)[C@@H]1CC[C@H]([C@H]2CC[C@@H]([C@@H](O)CCCCCCCCCC[C@H]3CC(CC(C)=O)C(=O)O3)O2)O1 (some centres not stated)
TGI [1]: 19 µM
TGI [2]: 52.7 µM
TGI [3]: 46.5 µM
TGI [7]: 38.3 µM
TGI [4]: 37.2 µM

N#Cc1ccc(C#Cc2ccccc2C#CCCCCO)cc1
GI50 [6]: 22.1 µM
TGI [6]: 45.6 µM

CC1OC(O[C@H]2C[C@@H](O)[C@]3(CO)[C@H]4[C@H](O)C[C@]5(C)[C@@H](C6=CC(=O)OC6)CC[C@]5(O)[C@@H]4CC[C@]3(O)C2)C(O)C(O)C1O (some centres not stated)
GI50 [6]: 22.9 µM
TGI [6]: 42.7 µM
GI50 [8]: 18.8 µM
TGI [8]: 33.7 µM

Cn1c(N2NC(=O)C(N=Nc3ccc(S(N)(=O)=O)cc3)C2=O)nc(-c2ccco2)c(C#N)c1=O (configuration not stated)
GI50 [6]: 14.7 µM
TGI [6]: > 50 µM
